This assay has as its system mixed culture consortium of three root canal isolates, E. faecalis, L. salivarius and S. gordonii. The assay can be described thus: biofilm formation in mini-flow chamber system, CSLM with LIVE/DEAD staining. Format: cell-based. Here is the method:
First, a microbial consortium was created using bacterial strains, E. faecalis, L. salivarius and S. gordonii which were isolated from endodontic therapy associated with persistent infections. The strains were stored at −70° C. using skim milk powder (Oxoid, Cambridge, United Kingdom), diluted in double distilled water and were recovered on blood agar in an atmosphere of 5% CO2 in hydrogen at 37° C. for 24 hours. Then, four to five colonies of each strain were transferred into liquid growth medium (Todd-Hewitt broth) and incubated in an atmosphere of 5% CO2 in hydrogen at 37° C. The optical densities (OD600) of the liquid cultures were monitored until exponential growth was reached, that is, until OD600 values of 0.6±0.1. The cells were harvested by centrifugation (3000 g, five minutes at 4° C.), washed in 10 mM PBS and re-suspended in Todd-Hewitt broth to an approximate cell concentration of 1×108 ml^−1. […]
Then, the mini-flow chamber biofilms were inspected. […] CSLM images were analyzed in 2 and 3-D by using the software bioimage_L. […]
Each experiment was repeated three times and the statistical analysis was performed by two-way analysis of variance (ANOVA). Two-way ANOVA detected any significant variation among biofilms formed on surfaces pre-conditioned with the composition according to the present invention, NaOCl and the uncoated controls. […]

Structures are written as SMILES.

For `[Na+].[O-]Cl` [NaOCl], the “viability of biofilm cells (LIVE/DEAD staining)” value (all tests, proportions of green-viable cells) is reported as “not compromised”. Further, the “biovolume of biofilms relative to composition-preconditioned surfaces and uncoated controls” value (preconditioned surfaces) is listed as “intermediate”.

The record behind these values is patent US20160303000A1, “COMPOSITION AND METHOD FOR REDUCING BACTERIAL BIOFILM FORMATION IN CONNECTION WITH A DENTAL PROCEDURE” (Loma Linda University, priority 2011, published 2016).
